Key:
[1] = 6-month regimen of sub-antibacterial doxycycline: cholesterol fractions in plasma of acute coronary syndrome patients with elevated baseline cholesterol; assay type: in vivo, human
Description: After six months, the cholesterol fractions were then measured (Table 1). Table 1: The Effect of a 6-Month Regimen of Sub-Antibacterial Doxycycline on Cholesterol Values in Plasma of Acute Coromary Syndrome Patients with Elevated Baseline Cholesterol

[2] = humans; cited from earlier work
[3] = in vivo; cited from earlier work

Structure (SMILES) | Change Due to Treatment, HDL/Cholesterol (Increase) ([1]; 6 months vs baseline, doxycycline 20 mg twice a day) [%] | Change Due to Treatment, LDL-Cholesterol (Reduction) ([1]; 6 months vs baseline, doxycycline 20 mg twice a day, p=0.033) [%] | Total Cholesterol, 6 Month Level ([1]; plasma, doxycycline 20 mg twice a day for six months, 3 patients on statins, baseline 231 ± 20) [mg %] | HDL-Cholesterol, 6 Month Level ([1]; plasma, doxycycline 20 mg twice a day for six months, baseline 48 ± 17) [mg %] | LDL-Cholesterol, 6 Month Level ([1]; plasma, doxycycline 20 mg twice a day for six months, baseline 155 ± 9) [mg %] | HDL/Cholesterol, 6 Month Level ([1]; ratio of HDL-cholesterol to total cholesterol, doxycycline 20 mg twice a day for six months, baseline 0.21) | Effect on serum cholesterol [2] | Effect on serum cholesterol levels [3]
C[C@H]1c2cccc(O)c2C(=O)C2=C(O)[C@]3(O)C(=O)C(C(N)=O)=C(O)[C@@H](N(C)C)[C@@H]3[C@@H](O)[C@@H]21 [doxycycline] | 19 | 31 | 190 ± 20 | 48 ± 18 | 107 ± 12 | 0.25 |  | 
CN(C)[C@@H]1C(O)=C(C(N)=O)C(=O)[C@@]2(O)C(O)=C3C(=O)c4c(O)cccc4[C@@](C)(O)[C@H]3C[C@@H]12 [tetracycline] |  |  |  |  |  |  | no effect | reduce serum cholesterol levels

Source: patent publication US6841547B2, “Method for decreasing low density lipoprotein” (Albert Einstein College of Medicine of Yeshevia University, priority 2003, dated 2005)
